The values below come from PubChem BioAssay (NCI).

Among the test systems are A549 NSCLC; HCT-15 colon; HT29 colon; SR leukemia; T-47D breast.
Holding throughout (assay): NCI-60 cell line screen, 48 h

Each structure is given as a SMILES string.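 Briefly, cells in 96-well plates were exposed to five compound concentrations for 48 h, and endpoints were estimated by linear interpolation. The concentration for full growth arrest is given as TGI.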 Some results are limits rather than exact numbers.

`O=C1CC(=Nc2ccc(Cl)cc2)C(c2ccccc2)N1c1ccccc1` (stereo not given): the TGI in the assay with A549 NSCLC was greater than 100 µM; with HCT-15 colon, greater than 100 µM; in the assay on HT29 colon, 37.4 µM; in the assay on SR leukemia it was 45.5 µM; with T-47D breast, 6.27 µM.
With `CCOCc1nc2c(OC)cc(-c3nc4ccc(N5CCN(C)CC5)cc4[nH]3)c(OC)c2[nH]1`, the TGI in the assay on A549 NSCLC is greater than 100 µM; in the assay with HCT-15 colon it was greater than 100 µM; in the assay on HT29 colon, 83 µM; in the assay with SR leukemia, 59.7 µM; with T-47D breast it was greater than 100 µM.
In the case of `O=C1CSC(c2cccc(Oc3ccccc3)c2)N1c1ccc(Cl)cc1` (stereo not given), the TGI with A549 NSCLC is greater than 100 µM; in the assay with HCT-15 colon it was greater than 100 µM; in the assay with HT29 colon it was greater than 100 µM; with SR leukemia, 46.9 µM; with T-47D breast, 91.9 µM.
Regarding `Nc1nc(N)c2ncn(-c3ccc(Cl)cc3)c2n1`, the TGI in the assay with A549 NSCLC, in the assay on HCT-15 colon, with HT29 colon and in the assay with T-47D breast was greater than 100 µM each time.
On to `Oc1ccc(-c2nc(-c3cccnc3)c(-c3ccc(Cl)cc3)[nH]2)cc1`, for which the TGI with A549 NSCLC came to 30.1 µM; in the assay on HCT-15 colon, 25.2 µM; in the assay on HT29 colon it was 28.4 µM; in the assay on SR leukemia, 44.1 µM; in the assay on T-47D breast, 28.6 µM.
As for `CCN(CC)CCNc1nc2ccc([N+](=O)[O-])cc2[n+]([O-])n1`, the TGI is 61 µM in the assay with A549 NSCLC; 39.8 µM in the assay on HCT-15 colon; 52.1 µM in the assay on HT29 colon; greater than 100 µM in the assay on SR leukemia; 40.6 µM in the assay with T-47D breast.
Consider `Cc1ccc(/C=C2\CCCc3ccccc3C2=O)cc1`, for which the TGI with A549 NSCLC is greater than 100 µM; with HCT-15 colon, 27.2 µM; in the assay on HT29 colon, 18.5 µM; in the assay with SR leukemia, 37.1 µM.
With `NC(Cc1ccccc1)C(=O)N[C@H]1c2ccsc2/C(=N/O)[C@H]1O` (stereo not given in full), the TGI with A549 NSCLC, in the assay with HCT-15 colon, with HT29 colon, in the assay on SR leukemia and with T-47D breast was greater than 100 µM each time.
With `COc1cccc(-c2ccc3c4c2O[C@H]2C(=O)CC[C@@]5(O)[C@@H](C3)N(CC3CC3)CC[C@]425)c1`, the TGI with A549 NSCLC turned out to be 35.5 µM; in the assay with HCT-15 colon it was 29.3 µM; in the assay on HT29 colon it was 24.6 µM; in the assay on SR leukemia it was 37.8 µM; in the assay on T-47D breast, 41.6 µM.
As to `O=c1[nH]nc(-c2ccccc2)c2[nH]c3c4ccccc4ccc3c12`, the TGI with A549 NSCLC, with HCT-15 colon, with SR leukemia and with T-47D breast was greater than 100 µM each time.
For the compound `CC(C)[Si](OC1=C(C(=O)N(C)c2cccc(Cl)c2)CCCC1)(C(C)C)C(C)C`, the TGI was determined as 19.9 µM in the assay on A549 NSCLC; 28.4 µM in the assay with HCT-15 colon; 31.1 µM with HT29 colon; 42.5 µM in the assay on SR leukemia; 18.1 µM with T-47D breast.
Regarding `CC1OC(OC2C(O[C@H]3CC[C@@]4(C)C(=CC[C@H]5[C@@H]6C[C@@H]7O[C@]8(CC[C@@H](CO)CO8)[C@@H](C)[C@@H]7[C@@]6(C)CC[C@@H]54)C3)OC(CO)C(O)C2OC2OC(CO)C(O)C(O)C2O)C(O)C(O)C1O` (stereo not given in full), the TGI came to 4.48 µM with A549 NSCLC, 3.94 µM in the assay on HCT-15 colon, 4.91 µM with HT29 colon and 4.02 µM in the assay with T-47D breast.
On to `CCOC(=O)c1nc2ccc(C(F)(F)F)cc2nc1NCc1cc(OC)c(OC)c(OC)c1`, for which the TGI in the assay on A549 NSCLC was greater than 100 µM; in the assay with HCT-15 colon, greater than 100 µM; with HT29 colon, greater than 100 µM; in the assay on SR leukemia, 48.5 µM; with T-47D breast it was greater than 100 µM.
As for `C=CC(CCc1ccc(C(=O)OCC)cc1)c1c(N)nc(N)[nH]c1=O` (stereo not given), the TGI in the assay with A549 NSCLC, with HCT-15 colon, in the assay with HT29 colon, in the assay on SR leukemia and in the assay with T-47D breast was greater than 100 µM each time.
On to `C[C@]12CCC(=O)O[C@H]1CCCCO2`, for which the TGI in the assay on A549 NSCLC, in the assay with HCT-15 colon, in the assay with HT29 colon, in the assay with SR leukemia and in the assay on T-47D breast was greater than 100 µM in each case.
With `C(=Nc1ccc(-c2nc3ccccc3[nH]2)cc1)c1cccs1`, the TGI in the assay with A549 NSCLC, in the assay with HCT-15 colon, with HT29 colon, in the assay on SR leukemia and in the assay on T-47D breast was greater than 100 µM each time.
Turning to `O=C(N/N=C/c1ccccc1)c1c(-c2cccnc2)cnc2ccccc12`, the TGI in the assay on A549 NSCLC, with HCT-15 colon, with HT29 colon and in the assay on SR leukemia was greater than 100 µM throughout.
Take `NN/C(=N\S(=O)(=O)c1cc2ccccc2s1)Nc1ccc(Cl)cc1`: the TGI was 39.8 µM in the assay with A549 NSCLC; greater than 100 µM in the assay with HCT-15 colon; 38.9 µM in the assay with HT29 colon; 73.9 µM in the assay on SR leukemia; 37.8 µM in the assay with T-47D breast.
In the same order, the values of `COc1cc(/C=C2\C(=O)N(c3ccccc3)C(c3ccccc3)S2(=O)=O)cc(OC)c1OC` (stereo not given) are greater than 100 µM, greater than 100 µM, 94.1 µM, greater than 100 µM and greater than 100 µM.
Regarding `C[N+](C)(C)CC1CCCCCCCCCCC1=O` (stereo not given), the TGI in the assay with A549 NSCLC, in the assay on HCT-15 colon, in the assay on HT29 colon, in the assay with SR leukemia and in the assay with T-47D breast was greater than 100 µM each time.
`COC(CNC(=O)C(C)NC(=O)CCc1ccccc1)OC` (stereo not given): the TGI with A549 NSCLC, with HCT-15 colon, in the assay with HT29 colon, in the assay on SR leukemia and in the assay with T-47D breast was greater than 100 µM each time.
